Measurements published in patent US20050209299A1, “Inhibition of mixed lineage kinases and uses therefor” (University of Maryland, Baltimore, priority 2004, published 2005).

Tests used:
[1] = tested on: ERK pathway; conditions: neuronal cells, reported (12); cited from earlier work
[2] = tested on: A549 airway epithelia carcinoma cell; experiment: Colony formation assay; format: cell-based; conditions: varying doses, 14 days, crystal violet
Method: (§1) Following treatments cells were counted on a hemocytometer following trypsinization and staining with trypan blue (Sigma). Greater than 95% of the cells excluded trypan blue dye. Cell proliferation also was measured using a colony formation assay. […] Following incubation for 8-14 days, cells were fixed for 10 minutes in 4% paraformaldehyde and stained with 0.2% crystal violet (in 20% methanol) for 1-2 minutes. Cells were washed several times with distilled water and colonies formed (at least 40 cells/per colony) were counted.

[3] = tested on: Cdc2; experiment: Cdc2 kinase activity (immunoprecipitated, histone substrate) in synchronized HeLa cells; format: cell-based
Method: (§2) In some experiments, cells were synchronized by double thymidine block as previously described (18-19). Briefly, cells were incubated for 16 hours with 2 mM thymidine in 10% FBS containing DMEM. The excess thymidine was washed off with Hanks Buffered Saline Solution (HBSS) and cells were released back into the cell cycle with complete medium. After 8 hours, cells were treated a second time with 2 mM thymidine in 10% FBS containing DMEM for another 16 hours to arrest cells at the G1/S-phase boundary. Synchronized cells were then washed with HBSS and released back into the cell cycle and harvested at various time points after G1/S release for analysis. Cell cycle analysis was done by fluorescence activated cell sorting (FACS) as described below.
Cdc2 was immunoprecipitated from cell lysates by incubating with Cdc2 antibody (0.5 μg) for 2 hours on ice. The lysates then were incubated with protein G-sepharose with mixing at 4° C. for an additional 2 hours. The immune-complex was washed with cold kinase buffer and incubated for 30 min at 30° C. with kinase buffer containing 10 μCi γ-^32P ATP, 20 μM cold ATP, and 2.5 μg histone (Type III-SS, Sigma) as a substrate. The reactions were stopped with SDS-PAGE sample buffer and the proteins were resolved by SDS-PAGE. Incorporation of ^32P into histone was determined by phosphorimager analysis.

[4] = tested on: HeLa cells; experiment: FACS analysis of DNA content (cell cycle); format: cell-based
Method: as §2
Synchronized cells were trypsinized, washed with PBS, fixed with 3 ml of cold (−20° C.) 70% ethanol, and stored at 4° C. overnight. Cells then were incubated with 100 μg/ml propidium iodide (Sigma) dissolved in 0.2 M Tris, pH 7.5, 20 mM EDTA, 1 mg/ml RNase A (Sigma) for 1 hour at room temperature and diluted with an equal volume of PBS. DNA content was measured by flow cytometry (FACScan Analyzer, BD Biosciences) and was analyzed using the Sync Wizard Model, ModFit LT software (BD Biosciences). […]

[5] = tested on: MKK1; experiment: Constitutively active MKK1 induced ERK activation in transfected HeLa cells (ppERK immunoblot); format: cell-based; conditions: CEP-11004 500 nM
Method: (§3) HeLa, NIH 3T3, HEK293, A549, or MRC-5 cells were grown in a DMEM supplemented with 10% fetal bovine serum (FBS) and penicillin (100 U/ml) and streptomycin (100 μg/ml). Estrogen receptor (ER) negative breast cancer cells, SUM-159, were obtained from the University of Michigan Human Breast Cancer Cell Lines (SUM-Lines) and grown in DMEM+10% FBS. In some experiments, cells were transfected with cDNA (1 μg) for pEGFP (BD Biosciences/Clontech, Palo Alto, Calif.), hemagglutinin (HA)-tagged MLK3, kinase dead mutant MLK3 (MLK3 K144R), GFP-tagged MLK2 (kindly provided by Dr. Donna Dorow), Flag-tagged DLK, or HA-tagged JNK1 using Lipofectamine® (Invitrogen, Carlsbad, Calif.). Transfected cells were harvested 16-24 hours after transfection.
(§4) For protein analysis, cells were washed twice with cold phosphate buffered saline (PBS), lysed with 300 μl of tissue lysis buffer (TLB) (20 mM Tris-base, pH 7.4, 137 mM NaCl, 2 mM EDTA, 1% Triton X-100, 25 mM β-glycerophosphate, 2 mM sodium pyrophosphate, 10% glycerol, 1 mM sodium orthovanadate, 1 mM phenylmethysulfonyl fluoride (PMSF), and 1 mM benzamidine) and centrifuged at 20,000×g to clarify lysates. Approximately 20 μg of total protein was separated by SDS-PAGE. […] Immunoreactivity was detected by enhanced chemiluminescence (ECL; Amersham, Buckinghamshire, England).

[6] = tested on: NIH 3T3 cells; experiment: Cell proliferation assay (cell counting, trypan blue); format: cell-based; conditions: CEP-11004 500 nM, up to 72 hours, cell number
Method: as §1

[7] = tested on: HeLa cells; experiment: as above; format: cell-based; conditions: CEP-11004 500 nM, up to 72 hours, cell number
Method: as §1

[8] = tested on: histone H3; experiment: Phospho-histone H3 (serine 10) immunofluorescence in synchronized HeLa cells; format: cell-based
Method: as §2
(§5) Cells grown on round glass coverslips in 6-centimeter plates were synchronized at the G1/S-phase boundary using excess thymidine as described in Example 4. At the indicated time after release back into the cell cycle, coverslips were fixed with 4% paraformaldehyde for 8 minutes and permeabilized with 0.1% Triton X-100 in PBS for 2 minutes. Cell staining patterns were confirmed in cells that were fixed and permeabilized with cold methanol for 10 minutes. Cells were stained with antibodies against MLK3, α-tubulin, cyclin B1, phospho-specific histone H3, or p62 nucleoporin followed by incubation with fluorescein or Texas Red conjugated secondary antibodies and counterstaining for cellular DNA with 4′,6-diamidino-2-phenylindole (DAPI, 0.2 μg/ml in PBS). Cells were identified using Nikon E800 Epi-fluorescence microscope (Image Systems, Columbia, Md.) and captured with a Hamamatsu CCD camera. Cell images were processed using IPlab software (Scanalytics, Fairfax, Va.).

[9] = tested on: HeLa cells; experiment: Mitotic index / mitotic stage assay (DAPI) in synchronized HeLa cells; format: cell-based
Method: as §2
Cells grown on coverslips were synchronized at the G1/S-phase boundary as described in Examples 4-5. In some cases, MLK3 was co-expressed with the pEGFP vector in order to identify transfected cells. […] At varying times after release, coverslips were fixed and cellular DNA was stained with DAPI. GFP-positive mitotic cells in prophase, prometaphase, metaphase, anaphase, or telophase were identified, counted, and expressed as a fraction of the total cells counted to determine the mitotic index. Within each experiment, 300 to 350 cells were counted for each condition and time point.

[10] = molecular target: T1, MLK3 (Homo sapiens, UniProt Q16584); experiment: MLK3 kinase assay (immunoprecipitated from treated transfected cells, MBP substrate); format: cell-based
T1 construct: expressed in transfected cells; host or cells: HeLa
T1 sequence (Q16584 whole entry): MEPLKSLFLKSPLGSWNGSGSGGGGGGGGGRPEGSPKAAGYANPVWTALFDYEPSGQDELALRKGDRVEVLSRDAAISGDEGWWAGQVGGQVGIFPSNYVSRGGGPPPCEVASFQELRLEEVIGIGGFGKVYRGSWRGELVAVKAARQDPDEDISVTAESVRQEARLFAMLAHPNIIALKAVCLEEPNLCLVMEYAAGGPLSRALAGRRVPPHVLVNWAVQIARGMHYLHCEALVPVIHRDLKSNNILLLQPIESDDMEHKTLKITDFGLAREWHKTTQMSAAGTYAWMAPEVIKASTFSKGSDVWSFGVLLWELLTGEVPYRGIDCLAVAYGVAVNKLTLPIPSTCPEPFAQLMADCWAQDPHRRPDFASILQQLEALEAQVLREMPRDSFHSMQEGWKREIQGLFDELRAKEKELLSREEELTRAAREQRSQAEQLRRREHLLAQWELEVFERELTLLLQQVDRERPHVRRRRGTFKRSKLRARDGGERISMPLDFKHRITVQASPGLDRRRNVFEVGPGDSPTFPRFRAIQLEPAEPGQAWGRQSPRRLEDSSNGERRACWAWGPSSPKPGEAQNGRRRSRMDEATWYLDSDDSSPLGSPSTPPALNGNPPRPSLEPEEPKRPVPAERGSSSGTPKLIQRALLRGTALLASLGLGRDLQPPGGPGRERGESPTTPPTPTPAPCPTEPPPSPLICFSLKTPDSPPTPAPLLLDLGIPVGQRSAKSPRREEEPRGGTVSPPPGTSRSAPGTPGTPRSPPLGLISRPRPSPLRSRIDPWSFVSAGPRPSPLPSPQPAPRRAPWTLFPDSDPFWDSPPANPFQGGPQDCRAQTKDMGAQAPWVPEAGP
Method: Immunoprecipitated MLK3 was incubated for 45 min at 30° C. with kinase buffer containing 10 μCi γ-^32P ATP, 20 μM cold ATP, and 0.5 μg myelin basic protein (MBP) as a substrate. The reaction was quenched with 2×SDS sample buffer, separated by SDS-PAGE and transferred to PVDF membranes (Perkin Elmer, Boston, Mass.). Radioactive phosphate incorporation into MBP and MLK3 were analyzed by phosphorimager (Amersham Biosciences/Molecular Dynamics) and immunoblotting, respectively.

[11] = molecular target: T1, MLK3; conditions: reference 11; cited from earlier work
[12] = tested on: cyclin B1; experiment: Cyclin B1 immunoblot in synchronized HeLa cells; format: cell-based
Method: as §2
For protein analysis, cells were washed twice with cold phosphate buffered saline (PBS), lysed with 300 μl of tissue lysis buffer (TLB) (20 mM Tris-base, pH 7.4, 137 mM NaCl, 2 mM EDTA, 1% Triton X-100, 25 mM β-glycerophosphate, 2 mM sodium pyrophosphate, 10% glycerol, 1 mM sodium orthovanadate, 1 mM phenylmethysulfonyl fluoride (PMSF), and 1 mM benzamidine) and centrifuged at 20,000×g to clarify lysates. Approximately 20 μg of total protein was separated by SDS-PAGE. Proteins were transferred to PVDF membrane (Perkin Elmer Life Sciences; Boston, Mass.), blocked for 1-2 hours with 5% nonfat dry milk in Tris-buffered saline (TBS) (50 mM Tris-base, pH 7.4, 0.15 M NaCl, and 0.1% Tween-20) and incubated with the primary antibodies in TBS containing 1% BSA solution for 1 to 16 hours. Membranes were washed several times in TBS-Tween solution and incubated with HRP conjugated anti-mouse or anti-rabbit antibodies (0.1 μg/ml). Immunoreactivity was detected by enhanced chemiluminescence (ECL; Amersham, Buckinghamshire, England).

[13] = tested on: HeLa cells; experiment: Mitotic spindle immunostaining (α/γ-tubulin, DAPI) in synchronized HeLa cells; format: cell-based
Method: as §2, §5

[14] = tested on: HEK293 cells; experiment: FACS analysis of DNA content (cell cycle); format: cell-based; conditions: treated for 20 hours; indicative of arrest in G2 or M-phase
Method: Synchronized cells were trypsinized, washed with PBS, fixed with 3 ml of cold (−20° C.) 70% ethanol, and stored at 4° C. overnight. Cells then were incubated with 100 μg/ml propidium iodide (Sigma) dissolved in 0.2 M Tris, pH 7.5, 20 mM EDTA, 1 mg/ml RNase A (Sigma) for 1 hour at room temperature and diluted with an equal volume of PBS. DNA content was measured by flow cytometry (FACScan Analyzer, BD Biosciences) and was analyzed using the Sync Wizard Model, ModFit LT software (BD Biosciences). To determine the percentage of G1, S and G2/M-phase cells, the settings for 2N and 4N peaks were defined within each experiment from the G1/S arrested cells and applied to all samples within a given experiment.

[15] = molecular target: T1, MLK3; experiment: MLK3-induced ERK activation in transfected HeLa cells (ppERK immunoblot); format: cell-based; conditions: CEP-11004 500 nM
Method: as §3, §4

[16] = molecular target: T1, MLK3; experiment: MLK3 induced JNK phosphorylation in transfected cells (immunoblot); format: cell-based
Method: as §3, §4

[17] = 11 and 13 hours after G1/S-phase release, vs untreated
[18] = 400 nM, added 5 hours after release
[19] = treated at end of S-phase for 4 hours

CCSCc1ccc2c(c1)c1c3c(c4c5cc(CSCC)ccc5n5c4c1n2[C@H]1C[C@](O)(C(=O)OC)[C@]5(C)O1)CNC3=O (relative stereo) [CEP-1347, 3,9-bis[(ethylthio)methyl]-(8R*,9S*,11-S*)-(−)-9-hydroxy-9-methoxycarbonyl-8-methyl 2,3,9,10-tetrahydro-8,11-epoxy-1H,8H, 11H-2,7b,11a-triazadibenzo(a,g)cycloocta(cde)trinden-1-one]
effect on the ERK pathway [1]: activate the ERK pathway

3,9-bis-[(isopropylthio)methyl]-(8R*,9S*, 11S*)-(−)-9-hydroxy-9-methoxycarbonyl-8-methyl-2,3,9,10-tetrahydro-8,11-epoxy-1H,8H,11H-2,7b,11a-triazadibenzo(a,g)cycloocta(cde)trinden-1-one [CEP-11004]
A549 colony formation [2]: dose dependent inhibition
Cdc2 kinase activity in synchronized HeLa cells [3, 17]: elevated Cdc2 kinase activity
Cdc2 activity in mock transfected vs MLK3 transfected cells ([3]; 100 or 200 nM CEP-11004): higher Cdc2 activity
cell cycle progression in synchronized HeLa cells (4N DNA) ([4]; added 5 hours after G1/S release, 11 and 13 hours after release): arrest in G2 or M-phase
DNA content by FACS, HeLa cells ([4]; treated for 20 hours, indicative of arrest in G2 or M-phase): accumulated 4N DNA
activity of MKK1 (non-MLK related protein kinase) [5]: does not affect
proliferation of NIH 3T3 cells [6]: unaffected
HeLa cell proliferation [7]: inhibited
nuclear pH3 staining during prophase ([8]; added 5 hours after G1/S release, additional 4 hours): did not contain nuclear pH3 staining
pH3 staining after NEB in pro-metaphase ([8]; both untreated and treated cells): readily apparent
lowest dose with inhibited pH3 staining in early mitotic cells ([8]; data not shown): 200 nM
pH3 staining in early mitosis before NEB ([8]; p62 nucleoporin co-staining): not observed
cells in metaphase or anaphase/telophase at 9 hours after G1/S [9, 18]: not evident
mitotic stage at 11 hours after G1/S release [9, 18]: primarily accumulated in pro-metaphase
pro-metaphase cells at 9 hours after G1/S ([9]; 400 nM, added 5 hours after release, vs untreated): accumulation of pro-metaphase cells
concentrations at which mitotic arrest occurs ([9]; as low as, FIGS. 6A-6C): 100 to 200 nM
percentage of pro-metaphase cells vs concentration ([9]; various concentrations for 8 hours (13 hours after G1/S release)): dose-dependent increase
expressed MLK3 activity (MBP phosphorylation) ([10]; HA-MLK3 in HeLa cells, CEP-11004 500 nM, 4 hours): significantly inhibited
MLK3 activity during G2 and M-phase transitions ([10]; data not shown): blocked
specificity towards MLK3 as compared to MLK2 [11]: approximately 3 fold
cyclin B1 expression in synchronized HeLa cells [12, 17]: sustained cyclin B1 expression
cyclin B1 levels in mock transfected cells ([12]; 100 or 200 nM CEP-11004, 8 hours): elevated
cyclin B1 levels in MLK3 transfected cells ([12]; 100 or 200 nM, vs mock transfected): lower cyclin B1 levels
chromosome organization (DAPI) [13, 19]: highly disorganized
microtubule organization (α-tubulin) in mitotic cells [13, 19]: significant disruption
mitotic cells with aberrant microtubule organization [13, 19]: Greater than 60%
number of spindle poles (γ-tubulin) [13, 19]: no effect
microtubules of interphase cells ([13]; treated for 4 hours, data not shown): no apparent effects
DNA content by FACS, HEK293 cells [14]: accumulated 4N DNA
MLK3-induced ERK activation [15]: inhibited
inhibition of MLK3 induced JNK1 phosphorylation ([16]; 100 nM CEP-11004, HA-MLK3 + HA-JNK1 co-expressed): 80%
MLK3 induced JNK phosphorylation ([16]; CEP-11004 500 nM, 4 hours, transfected cells): inhibited MLK3
